In brackets after ≈: the same amount, converted by molar mass.
Columns and labels:
[1] = target: T1, Adenosine receptor A1 (Homo sapiens, UniProt P30542); assay: Displacement of [3H]DPCPX from human adenosine A1 receptor expressed in CHO cells; assay type: cell-based
T1 sequence (P30542 whole entry): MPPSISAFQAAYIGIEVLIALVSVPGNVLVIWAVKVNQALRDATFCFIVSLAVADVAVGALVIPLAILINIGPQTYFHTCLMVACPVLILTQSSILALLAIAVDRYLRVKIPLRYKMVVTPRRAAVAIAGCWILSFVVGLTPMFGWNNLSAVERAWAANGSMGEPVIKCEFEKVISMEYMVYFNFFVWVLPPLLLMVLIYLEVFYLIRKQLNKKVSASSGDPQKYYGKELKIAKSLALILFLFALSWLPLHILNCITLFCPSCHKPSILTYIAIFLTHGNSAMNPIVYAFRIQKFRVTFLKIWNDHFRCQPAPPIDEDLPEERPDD

[2] = target: T2, Adenosine receptor A3 (Homo sapiens, UniProt P0DMS8); assay: Displacement of [3H]NECA from human adenosine A3 receptor expressed in HeLa cells; assay type: cell-based
T2 sequence (P0DMS8 whole entry): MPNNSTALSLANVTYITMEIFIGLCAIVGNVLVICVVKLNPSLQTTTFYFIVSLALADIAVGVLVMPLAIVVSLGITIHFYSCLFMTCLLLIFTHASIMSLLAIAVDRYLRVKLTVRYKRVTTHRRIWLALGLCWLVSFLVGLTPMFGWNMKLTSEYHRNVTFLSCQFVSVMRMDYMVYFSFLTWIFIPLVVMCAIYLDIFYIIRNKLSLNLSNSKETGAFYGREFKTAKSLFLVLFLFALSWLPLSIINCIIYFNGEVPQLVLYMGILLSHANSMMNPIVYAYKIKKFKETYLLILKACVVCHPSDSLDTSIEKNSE

[3] = target: T3, Adenosine receptor A2b (Homo sapiens, UniProt P29275); assay: Displacement of [3H]DPCPX from human adenosine A2B receptor expressed in HEK293 cells; assay type: cell-based
T3 sequence (P29275 whole entry): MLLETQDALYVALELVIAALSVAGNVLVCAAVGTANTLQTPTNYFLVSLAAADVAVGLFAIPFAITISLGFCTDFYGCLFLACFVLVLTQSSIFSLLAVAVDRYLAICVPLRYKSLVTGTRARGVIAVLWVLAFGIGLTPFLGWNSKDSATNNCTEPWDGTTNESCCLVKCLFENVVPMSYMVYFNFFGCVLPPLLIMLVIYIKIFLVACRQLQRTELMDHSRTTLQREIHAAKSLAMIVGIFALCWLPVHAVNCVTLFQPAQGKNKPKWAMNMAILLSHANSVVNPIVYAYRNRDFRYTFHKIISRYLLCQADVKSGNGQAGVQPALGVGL

[4] = target: Adenosine receptors; A1 & A2b (Homo sapiens) (UniProt P30542+P29275); assay: Selectivity for human adenosine A2B receptor over adenosine A1 receptor; assay type: protein assay
[5] = target: Adenosine receptors; A2b & A3 (Homo sapiens) (UniProt P29275+P0DMS8); assay: Selectivity for human adenosine A2B receptor over adenosine A3 receptor; assay type: protein assay
[6] = Solubility at pH 1.2; assay type: physicochemical; conditions: buffer
[7] = AUC in rat at 10 mg/kg, po; assay type: ADME, organism-based; parameters: dose 10 mg/kg, route oral; conditions: plasma
[8] = Tmax in rat at 10 mg/kg, po; assay type: ADME, organism-based; parameters: dose 10 mg/kg, route oral; conditions: in vivo
[9] = Solubility of the compound; assay type: physicochemical

| SMILES | IC50 [1] [nM] | IC50 [2] [nM] | IC50 [3] [nM] | other results |
| --- | --- | --- | --- | --- |
| COc1ccc(NS(=O)(=O)c2ccc(-c3cc4c([nH]3)c(=O)n(C)c(=O)n4C)cc2)cn1 | 54 | 1520 | – | – |
| CCCn1c(=O)c2[nH]c(-c3ccc(S(=O)(=O)NCCc4ccccn4)cc3)cc2n(C)c1=O | 123 | 844 | – | – |
| Cn1c(=O)c2[nH]c(-c3ccc(S(=O)(=O)N4CCN(Cc5ccc(Br)cc5)CC4)cc3)cc2n(C)c1=O | 183 | 12300 | 1 | Selectivity ratio [4]: 183; Selectivity ratio [5]: 12300 |
| CCCn1c(=O)c2[nH]c(-c3ccc(S(=O)(=O)N4CCN(Cc5ccc(C#N)cc5)CC4)cc3)cc2n(C)c1=O | 370 | 950 | 6 | Selectivity ratio [4]: 62; Selectivity ratio [5]: 160 |
| Cn1c(=O)c2[nH]c(-c3ccc(S(=O)(=O)NCCc4ccccn4)cc3)cc2n(C)c1=O | 150 | 2080 | – | solubility [6]: 57 µg/mL (≈ 130 µM); AUC [7]: 985 ng·h/mL; Tmax [8]: 6 h |
| CCn1c(=O)c2[nH]c(-c3ccc(S(=O)(=O)N4CCN(Cc5cccc(F)c5)CC4)cc3)cc2n(CC)c1=O | 350 | 21900 | 15 | – |
| Cn1c(=O)c2[nH]c(-c3ccc(S(=O)(=O)N4CCN(Cc5ccc(F)cc5)CC4)cc3)cc2n(C)c1=O | – | – | 10 | – |
| Cn1c(=O)c2[nH]c(-c3ccc(S(=O)(=O)Nc4ccccn4)cc3)cc2n(C)c1=O | 68 | 1320 | – | – |
| CCCn1c(=O)c2[nH]c(-c3ccc(S(=O)(=O)NCc4ccc(OC)cn4)cc3)cc2n(C)c1=O | 12 | 7600 | 15 | – |
| Cn1c(=O)c2[nH]c(-c3ccc(S(=O)(=O)N4CCN(c5ccccc5)CC4)cc3)cc2n(C)c1=O | – | – | 6 | solubility [9]: < 10 µg/mL |
| CCCn1c(=O)n(C)c(=O)c2[nH]c(-c3ccc(S(=O)(=O)N4CCN(Cc5ccc6c(c5)OCO6)CC4)cc3)cc21 | 102 | 14900 | 13 | – |
| COc1ccc(CNS(=O)(=O)c2ccc(-c3cc4c([nH]3)c(=O)n(C)c(=O)n4C)cc2)nc1 | 101 | 38000 | 20 | – |
| Cn1c(=O)c2[nH]c(-c3ccc(S(=O)(=O)N4CCN(Cc5ccncc5)CC4)cc3)cc2n(C)c1=O | – | – | 27 | – |
| CCCn1c(=O)n(C)c(=O)c2[nH]c(-c3ccc(S(=O)(=O)N4CCN(Cc5cccc(F)c5)CC4)cc3)cc21 | – | – | 17 | – |
| Cn1c(=O)c2[nH]c(-c3ccc(S(=O)(=O)N4CCN(Cc5ccc(F)cc5F)CC4)cc3)cc2n(C)c1=O | 126 | – | 7 | – |
| CN(C1CCN(Cc2ccccc2)CC1)S(=O)(=O)c1ccc(-c2cc3c([nH]2)c(=O)n(C)c(=O)n3C)cc1 | – | – | 90 | – |
| CCn1c(=O)c2[nH]c(-c3ccc(S(=O)(=O)NC4CCN(Cc5ccc(F)cc5)CC4)cc3)cc2n(CC)c1=O | 205 | 4310 | 12 | – |
| Cn1c(=O)c2[nH]c(-c3ccc(S(=O)(=O)N4CCN(Cc5cccc(F)c5)CC4)cc3)cc2n(C)c1=O | 152 | 8890 | – | – |
| CCn1c(=O)c2[nH]c(-c3ccc(S(=O)(=O)NCCc4ccccn4)cc3)cc2n(CC)c1=O | 140 | 18900 | 75 | – |
| Cn1c(=O)c2[nH]c(-c3ccc(S(=O)(=O)NCCOc4ccccn4)cc3)cc2n(C)c1=O | 396 | 6440 | – | – |
| Cn1c(=O)c2[nH]c(-c3ccc(S(=O)(=O)N4CCN(Cc5ccc(Cl)s5)CC4)cc3)cc2n(C)c1=O | 102 | 5250 | – | – |
| Cn1c(=O)c2[nH]c(-c3ccc(OCC(=O)Nc4ccc(Br)cc4)cc3)cc2n(C)c1=O | – | – | – | solubility [9]: < 10 µg/mL; AUC [7]: < 20 ng·h/mL |
| Cn1c(=O)c2[nH]c(-c3ccc(S(=O)(=O)N4CCN(Cc5ccccc5)CC4)cc3)cc2n(C)c1=O | 415 | 3170 | – | solubility [6]: 70 µg/mL (≈ 142 µM); AUC [7]: 252 ng·h/mL; Tmax [8]: 6 h |
| Cn1c(=O)c2[nH]c(-c3ccc(S(=O)(=O)NC4CCN(Cc5ccccc5)CC4)cc3)cc2n(C)c1=O | – | – | 43 | – |
| CCCn1c(=O)c2[nH]c(-c3ccc(S(=O)(=O)NC4CCN(Cc5ccccc5)CC4)cc3)cc2n(CCC)c1=O | 59 | 1470 | 18 | – |
